Experimental data taken from patent publication US20250041429A1, “COMPOUND HAVING BTK PROTEIN DEGRADATION ACTIVITY, AND MEDICAL USES THEREOF” (UBIX THERAPEUTICS, INC., priority 2021, published 2025).
Blank lines part the entries; values can stand above or below the compound they belong to.

Target: T1, BTK protein (Homo sapiens, UniProt Q06187)
T1 construct: endogenous in cells; host or cells: TMD-8 cells
Assay: Measurement of BTK protein degradation ability in TMD-8 cells (Western blotting)
Format: cell-based
Conditions: harvested after 24 hours; for BTK degradation (%) 1 nM: compound 1 nM; for BTK degradation (%) 10 nM: compound 10 nM; for BTK degradation (%) 100 nM: compound 100 nM
Procedure: TMD-8, RAMOS, or 293T BTK MUT (C481S) cells were treated with the synthesized compounds, and then the amount of BTK protein present in the cells was measured using Western blotting detection. The protocol for the experiment conducted using TMD-8 cells was as follows:
[Culture] TMD-8 cells were resuspended in RPMI1640 MEDIUM (Hyclone, SH30027.01), 10% FBS (Hyclone, SV30207.02), and 1% Penicillin-streptomycin (Welgene, LS 202-02) media, and 1 mL of this suspension was seeded in a 12-well plate at a cell concentration of 1×10^6/mL.
[Compound treatment] The 12-well plate was treated as follows: The 10 mM stock was serially diluted 1/10 with DMSO (3 μL+27 μL DMSO), and cells were treated with compounds at final concentrations of 0.1, 1, 10 μM or 0.0001, 0.001, 0.01, 0.1 μM, and harvested after 24 hours. In the negative control group, DMSO diluted 1/10 was added to the media. (3 μL DMSO+27 μL media)
[Harvest] Each well was pipetted with a 1 mL pipette, collected in a 1.5 mL microtube, and centrifuged (500 g, 5 min, 4° C.). After removing the supernatant, it was washed with PBS and centrifuged again (500 g, 5 min, 4° C.). The supernatant was removed and the pellet was collected.
[Cell lysis and Sample preparation] lysis buffer was prepared as follows: RIPA buffer (Biosesang, RC2038-050-00), 0.5 mM PMSF (SIGMA, P7626) and 1× Protease/Phosphatase Inhibitor (Cell signaling, 5872S) were added at 60-70 μL per well and left on ice for 30 minutes. (Vortexing at 0 and 30 minutes, respectively), followed by sonication (10 seconds pulse, 30 seconds rest, 5 cycles, 70% amplification) and centrifuge (15000 g, 15 min, 4° C.). Only the supernatant was collected and transferred to a new microtube. The samples were diluted by ½ with RIPA buffer in a 96-well plate. 200 μL of the mixture A:B=50:1 of the BCA Protein Assay Kit (iNtRON, 21071) was added each, stayed at 37° C. for 30 minutes, and cooled for 10 minutes. Afterwards, absorbance was measured at 562 nm using BioTek's SYNERGY H1 microplate reader. After making a sample by quantifying the protein using the measured value, it was boiled at 70° C. for 10 minutes. The sample buffer used at this time was a mixture of NuPAGE or Bolt 4× sample buffer (Invitrogen) and each 10× sample reducing agent according to the gel to be used. RIPA buffer was used for protein dilution.
[Western blotting detection method] The same amount of sample was loaded on NuPAGE or Bolt Bis-tris 4-12% gradient gel and run (200 V, 35 minutes). It was transferred to a […] NC membrane using Trans-blot Turbo (BIO-RAD) (1.3 A constant, 25 V limit, 15 minutes). For blocking, skim milk or Intercept Blocking Buffer (LI-COR, 927-60001): 0.1% TBST=1:1 was used at room temperature for 1 hour. Anti BTK Rabbit (1:1,000 in 5% skim milk/0.2% TBST, size: 77 kDa, Cell signaling Technology) was reacted at 4° C. for 16 hours or at room temperature for 2 hours. Anti GAPDH Rabbit (1:10,000 in 5% BSA/0.2% TBST, size: 36 kDa, GENETEX) and Anti β-actin mouse (1:10,000 in 5% BSA/0.2% TBST, RT, size: 43 kDa, GENETEX) were reacted at room temperature for 1 hour or 3 hours. The samples were washed 3 times with 0.5% TBST for 5 minutes each. Secondary antibodies, Anti-Rabbit IgG (1:5,000 in 5% Skim milk/TBST, CST), IRDye® 800CW Goat anti-Rabbit IgG Secondary Antibody (1:10,000 in 5% skim/TBST, RT 45 min), IRDye® 680RD Goat anti-Mouse IgG Secondary Antibody (1:10,000 in 5% skim/TBST, RT 45 min) were added depending on each sample and reacted for 45 minutes on a rocker at room temperature. The samples were washed 5 times with 0.5% TBST for 5 minutes each and detected with LI-COR's Odyssey. At this time, BTK was detected using SuperSignal West Pico PLUS Chemiluminescent Substrate or SuperSignal West femto Maximum Sensitivity Substrate, and house-keeping genes were detected as is.

T1 sequence (Q06187 whole entry): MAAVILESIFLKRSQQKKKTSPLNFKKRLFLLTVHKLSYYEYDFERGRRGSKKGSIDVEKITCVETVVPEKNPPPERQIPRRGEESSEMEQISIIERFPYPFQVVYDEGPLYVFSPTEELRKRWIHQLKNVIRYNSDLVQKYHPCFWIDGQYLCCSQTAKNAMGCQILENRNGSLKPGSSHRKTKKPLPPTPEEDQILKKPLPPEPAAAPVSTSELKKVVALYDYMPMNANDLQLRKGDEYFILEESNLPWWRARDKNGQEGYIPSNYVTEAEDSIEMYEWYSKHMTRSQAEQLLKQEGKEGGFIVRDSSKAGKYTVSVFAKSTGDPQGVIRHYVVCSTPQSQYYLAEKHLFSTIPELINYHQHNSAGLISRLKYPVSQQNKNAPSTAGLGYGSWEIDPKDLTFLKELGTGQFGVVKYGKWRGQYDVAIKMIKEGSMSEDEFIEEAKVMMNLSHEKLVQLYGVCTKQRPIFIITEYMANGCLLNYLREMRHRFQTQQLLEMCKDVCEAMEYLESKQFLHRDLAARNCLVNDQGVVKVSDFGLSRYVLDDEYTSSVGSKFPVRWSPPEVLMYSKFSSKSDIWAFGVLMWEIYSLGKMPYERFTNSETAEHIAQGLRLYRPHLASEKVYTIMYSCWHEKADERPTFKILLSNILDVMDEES

SMILES: Cc1c(NC(=O)N2CC(OC(C)C)C2)cc(F)cc1-c1ccnc(Nc2ccc(N3CCN(CC4CN(c5ccc6c(n5)CN(C5CCC(=O)NC5=O)C6=O)C4)CC3)cc2)n1 (stereo not drawn) [Example 108, N-(3-(2-((4-(4-((1-(6-(2,6-dioxopiperidin-3-yl)-5-oxo-6,7-dihydro-5H-pyrrolo[3,4-b]pyridin-2-yl)azetidin-3-yl)methyl)piperazin-1-yl)phenyl)amino)pyrimidin-4-yl)-5-fluoro-2-methylphenyl)-3-isopropoxyazetidine-1-carboxamide]
- BTK degradation (%) 1 nM: 21.5%
- BTK degradation (%) 10 nM: 73%
- BTK degradation (%) 100 nM: 94.5%

SMILES: Cc1cc(-c2ccnc(Nc3ccc(C4CCN(C5CCN(c6ccc7c(c6)C(=O)N(C6CCC(=O)NC6=O)C7=O)CC5)CC4)cc3)n2)ccc1CNC(=O)N1CC(OC(C)C)C1 (stereo not drawn) [Example 110, N-(4-(2-((4-(1′-(2-(2,6-dioxopiperidin-3-yl)-1,3-dioxoisoindolin-5-yl)-[1,4′-bipiperidin]-4-yl)phenyl)amino)pyrimidin-4-yl)-2-methylbenzyl)-3-isopropoxyazetidine-1-carboxamide]
- BTK degradation (%) 1 nM: 28.0%
- BTK degradation (%) 10 nM: 92.0%
- BTK degradation (%) 100 nM: 99.5%

SMILES: Cc1cc(-c2ccnc(Nc3ccc(C4CCN(CC5CCN(c6cccc(N7CCC(=O)NC7=O)c6)CC5)CC4)cc3)n2)ccc1CNC(=O)c1cnn(C(C)(C)C)c1 [Example 85, 1-(tert-butyl)-N-(4-(2-((4-(1-((1-(3-(2,4-dioxotetrahydropyrimidin-1 (2H)-yl)phenyl)piperidin-4-yl)methyl)piperidin-4-yl)phenyl)amino)pyrimidin-4-yl)-2-methylbenzyl)-1H-pyrazole-4-carboxamide]
- BTK degradation (%) 1 nM: 45.5%
- BTK degradation (%) 10 nM: 93.5%
- BTK degradation (%) 100 nM: 98.5%

SMILES: Cc1c(NC(=O)N2CC(OC(C)C)C2)cc(F)cc1-c1ccnc(Nc2ccc(N3CCN(CC4CCN(c5ccc6c(n5)CN(C5CCC(=O)NC5=O)C6=O)CC4)CC3)cc2)n1 (stereo not drawn) [Example 26, N-(3-(2-((4-(4-((1-(6-(2,6-dioxopiperidin-3-yl)-5-oxo-6,7-dihydro-5H-pyrrolo[3,4-b]pyridin-2-yl)piperidin-4-yl)methyl)piperazin-1-yl)phenyl)amino)pyrimidin-4-yl)-5-fluoro-2-methylphenyl)-3-isopropoxyazetidine-1-carboxamide]
- BTK degradation (%) 1 nM: 15.5%
- BTK degradation (%) 10 nM: 76%
- BTK degradation (%) 100 nM: 93%

SMILES: Cc1cc(-c2ccnc(Nc3ccc(CN4CCC(CN5CCC(c6cccc(N7CCC(=O)NC7=O)c6)CC5)CC4)cc3)n2)ccc1CNC(=O)c1cn(C(C)(C)C)nn1 [Example 140]
- BTK degradation (%) 1 nM: 0.5%
- BTK degradation (%) 10 nM: 10.5%
- BTK degradation (%) 100 nM: 77.0%

SMILES: Cc1cc(-c2ccnc(Nc3cnn(C4CCN(CC5CCN(c6ccc7c(c6)C(=O)N(C6CCC(=O)NC6=O)C7=O)CC5)CC4)c3)n2)ccc1CNC(=O)c1cn(C(C)(C)C)nn1 (stereo not drawn) [Example 39, 1-(tert-butyl)-N-(4-(2-((1-(1-((1-(2-(2,6-dioxopiperidin-3-yl)-1,3-dioxoisoindolin-5-yl)piperidin-4-yl)methyl)piperidin-4-yl)-1H-pyrazol-4-yl)amino)pyrimidin-4-yl)-2-methylbenzyl)-1H-1,2,3-triazole-4-carboxamide]
- BTK degradation (%) 1 nM: 65.5%
- BTK degradation (%) 10 nM: 93.5%
- BTK degradation (%) 100 nM: 98.5%

The remaining lines, values ahead:

- BTK degradation (%) 1 nM: −9.0%
- BTK degradation (%) 10 nM: 39.0%
- BTK degradation (%) 100 nM: 95.5%
SMILES: Cc1cc(-c2ccnc(Nc3ccc(C4CCN(C5CCN(C(=O)c6cccc(NC7CCC(=O)NC7=O)c6)CC5)CC4)cc3)n2)ccc1CNC(=O)N1CC(OC(C)C)C1 (stereo not drawn) [Example 104, N-(4-(2-((4-(1′-(3-((2,6-dioxopiperidin-3-yl)amino)benzoyl)-[1,4′-bipiperidin]-4-yl)phenyl)amino)pyrimidin-4-yl)-2-methylbenzyl)-3-isopropoxyazetidine-1-carboxamide]

- BTK degradation (%) 1 nM: −9.0%
- BTK degradation (%) 10 nM: 63.0%
- BTK degradation (%) 100 nM: 98.5%
SMILES: Cc1cc(-c2ccnc(Nc3ccc(N4CCC(CN5CCC(c6cccc(NC7CCC(=O)NC7=O)c6)CC5)CC4)cc3)n2)ccc1CNC(=O)N1CC(OC(C)C)C1 (stereo not drawn) [Example 122, N-(4-(2-((4-(4-((4-(3-((2,6-dioxopiperidin-3-yl)amino)phenyl)piperidin-1-yl)methyl)piperidin-1-yl)phenyl)amino)pyrimidin-4-yl)-2-methylbenzyl)-3-isopropoxyazetidine-1-carboxamide]

- BTK degradation (%) 1 nM: 15.0%
- BTK degradation (%) 10 nM: 68.0%
- BTK degradation (%) 100 nM: 97.5%
SMILES: Cc1cc(-c2ccnc(Nc3ccc(N4CCC(C(=O)N5CCC(c6ccc(OC7CCC(=O)NC7=O)cc6)CC5)CC4)cc3)n2)ccc1CNC(=O)N1CC(OC(C)C)C1 (stereo not drawn) [Example 118, N-(4-(2-((4-(4-(4-(4-((2,6-dioxopiperidin-3-yl)oxy)phenyl)piperidine-1-carbonyl)piperidin-1-yl)phenyl)amino)pyrimidin-4-yl)-2-methylbenzyl)-3-isopropoxyazetidine-1-carboxamide]

- BTK degradation (%) 1 nM: −0.5%
- BTK degradation (%) 10 nM: 33%
- BTK degradation (%) 100 nM: 87%
SMILES: Cc1cc(-c2ccnc(Nc3ccc(N4CCN(CC5CCN(C(=O)c6cccc(N7CCC(=O)NC7=O)c6)CC5)CC4)cc3)n2)ccc1CNC(=O)N1CC(OC(C)C)C1 [Example 89, N-(4-(2-((4-(4-((1-(3-(2,4-dioxotetrahydropyrimidin-1 (2H)-yl)benzoyl)piperidin-4-yl)methyl)piperazin-1-yl)phenyl)amino)pyrimidin-4-yl)-2-methylbenzyl)-3-isopropoxyazetidine-1-carboxamide]

- BTK degradation (%) 1 nM: 43.0%
- BTK degradation (%) 10 nM: 92.5%
- BTK degradation (%) 100 nM: 98.5%
SMILES: Cc1cc(-c2ccnc(Nc3ccc(CN4CCN(CC5CCN(c6cccc(NC7CCC(=O)NC7=O)c6)CC5)CC4)cc3)n2)ccc1CNC(=O)N1CC(OC(C)C)C1 (stereo not drawn) [Example 64, N-(4-(2-((4-((4-((1-(3-((2,6-dioxopiperidin-3-yl)amino)phenyl)piperidin-4-yl)methyl)piperazin-1-yl)methyl)phenyl)amino)pyrimidin-4-yl)-2-methylbenzyl)-3-isopropoxyazetidine-1-carboxamide]

- BTK degradation (%) 1 nM: 59.0%
- BTK degradation (%) 10 nM: 99.5%
- BTK degradation (%) 100 nM: 99.5%
SMILES: Cc1cc(-c2ccnc(Nc3ccc(N4CCC(CN5CCN(C(=O)c6cccc(NC7CCC(=O)NC7=O)c6)CC5)CC4)cc3)n2)ccc1CNC(=O)N1CC(OC(C)C)C1 (stereo not drawn) [Example 114, N-(4-(2-((4-(4-((4-(3-((2,6-dioxopiperidin-3-yl)amino)benzoyl)piperazin-1-yl)methyl)piperidin-1-yl)phenyl)amino)pyrimidin-4-yl)-2-methylbenzyl)-3-isopropoxyazetidine-1-carboxamide]

- BTK degradation (%) 1 nM: 48.0%
- BTK degradation (%) 10 nM: 97.0%
- BTK degradation (%) 100 nM: 100.0%
SMILES: Cc1cc(-c2ccnc(Nc3ccc(N4CCN(CC5CCN(Cc6cccc(NC7CCC(=O)NC7=O)c6)CC5)CC4)cc3)n2)ccc1CNC(=O)N1CC(OC(C)C)C1 (stereo not drawn) [Example 115, N-(4-(2-((4-(4-((1-(3-((2,6-dioxopiperidin-3-yl)amino)benzyl)piperidin-4-yl)methyl)piperazin-1-yl)phenyl)amino)pyrimidin-4-yl)-2-methylbenzyl)-3-isopropoxyazetidine-1-carboxamide]
